# Tested on: 439559-082-T-J2-PDC spheroids viability
# Assay: Anticancer human tumor 439559-082-T-J2-PDC patient-derived colon adenocarcinoma cell line growth inhibition [GQUAD]
# Details: for IC50: curve of first compound; for viability, T/C: stronger effect = lower value
# Summary of the method: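 Multi-cell-type spheroids of tumor cells with HUVEC and mesenchymal stem cells, treated with drug combinations. Concentrations descend in half-log steps from near clinical Cmax, or from 10 microM where Cmax is unknown; viability read-out.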
# [1] = second compound 0.0316 µM, first compound 0.0316 µM
# [2] = second compound 0.0316 µM, first compound 0.1 µM
# [3] = second compound 0.0316 µM, first compound 0.316 µM
# [4] = second compound 0.0316 µM, first compound 1 µM
# [5] = second compound 0.0316 µM, first compound 3.16 µM
# [6] = second compound 0.0316 µM, first compound 10 µM
# [7] = second compound 0.1 µM, first compound 0.0316 µM
# [8] = second compound 0.1 µM, first compound 0.1 µM
# [9] = second compound 0.1 µM, first compound 0.316 µM
# [10] = second compound 0.1 µM, first compound 1 µM
# [11] = second compound 0.1 µM, first compound 3.16 µM
# [12] = second compound 0.1 µM, first compound 10 µM
# [13] = second compound 0.316 µM, first compound 0.0316 µM
# [14] = second compound 0.316 µM, first compound 0.1 µM
# [15] = second compound 0.316 µM, first compound 0.316 µM
# [16] = second compound 0.316 µM, first compound 1 µM
# [17] = second compound 0.316 µM, first compound 3.16 µM
# [18] = second compound 0.316 µM, first compound 10 µM
# [19] = second compound 1 µM, first compound 0.0316 µM
# [20] = second compound 1 µM, first compound 0.1 µM
# [21] = second compound 1 µM, first compound 0.316 µM
# [22] = second compound 1 µM, first compound 1 µM
# [23] = second compound 1 µM, first compound 3.16 µM
# [24] = second compound 1 µM, first compound 10 µM
# [25] = second compound 3.16 µM, first compound 0.0316 µM
# [26] = second compound 3.16 µM, first compound 0.1 µM
# [27] = second compound 3.16 µM, first compound 0.316 µM
# [28] = second compound 3.16 µM, first compound 1 µM
# [29] = second compound 3.16 µM, first compound 3.16 µM
# [30] = second compound 3.16 µM, first compound 10 µM
# [31] = second compound 10 µM, first compound 0.0316 µM
# [32] = second compound 10 µM, first compound 0.1 µM
# [33] = second compound 10 µM, first compound 0.316 µM
# [34] = second compound 10 µM, first compound 1 µM
# [35] = second compound 10 µM, first compound 3.16 µM
# [36] = second compound 10 µM, first compound 10 µM
# 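Also: spheroids exposed to the agents for 7 days before readout.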
# 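For viability, T/C in this document: percent of luminescence signal in DMSO vehicle wells taken as 100% viability.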
smiles,measurement,setting,value
C=CCn1c(=O)c2cnc(Nc3ccc(N4CCN(C)CC4)cc3)nc2n1-c1cccc(C(C)(C)O)n1 + Cc1[nH]c2ccc(F)cc2c1-c1nc2c3cccnc3c3ncccc3c2[nH]1,IC50,second compound 0.0316 µM,7900 nM
same,IC50,second compound 0.1 µM,> 10000 nM
same,IC50,second compound 0.316 µM,8080 nM
same,IC50,second compound 1 µM,8330 nM
same,IC50,second compound 3.16 µM,5740 nM
same,IC50,second compound 10 µM,5560 nM
same,"viability, T/C",[1],94.2%
same,"viability, T/C",[2],92.7%
same,"viability, T/C",[3],97.6%
same,"viability, T/C",[4],101%
same,"viability, T/C",[5],115%
same,"viability, T/C",[6],37%
same,"viability, T/C",[7],96.6%
same,"viability, T/C",[8],88.4%
same,"viability, T/C",[9],103%
same,"viability, T/C",[10],92.9%
same,"viability, T/C",[11],98.5%
same,"viability, T/C",[12],57.4%
same,"viability, T/C",[13],97.7%
same,"viability, T/C",[14],102%
same,"viability, T/C",[15],89%
same,"viability, T/C",[16],104%
same,"viability, T/C",[17],106%
same,"viability, T/C",[18],38.6%
same,"viability, T/C",[19],107%
same,"viability, T/C",[20],99%
same,"viability, T/C",[21],100%
same,"viability, T/C",[22],95.7%
same,"viability, T/C",[23],96.9%
same,"viability, T/C",[24],41.2%
same,"viability, T/C",[25],80.5%
same,"viability, T/C",[26],80.2%
same,"viability, T/C",[27],78.7%
same,"viability, T/C",[28],75.5%
same,"viability, T/C",[29],76.1%
same,"viability, T/C",[30],25.9%
same,"viability, T/C",[31],97.4%
same,"viability, T/C",[32],71.8%
same,"viability, T/C",[33],72.6%
same,"viability, T/C",[34],71.3%
same,"viability, T/C",[35],80.4%
same,"viability, T/C",[36],20.3%
CC(=O)O[C@H]1C(=O)[C@@]2(C)[C@H]([C@H](OC(=O)c3ccccc3)[C@]3(O)C[C@H](OC(=O)[C@H](O)[C@@H](NC(=O)c4ccccc4)c4ccccc4)C(C)=C1C3(C)C)[C@]1(OC(C)=O)CO[C@@H]1C[C@@H]2O + Cc1[nH]c2ccc(F)cc2c1-c1nc2c3cccnc3c3ncccc3c2[nH]1,IC50,second compound 0.0316 µM,343 nM
same,IC50,second compound 0.1 µM,406 nM
same,IC50,second compound 0.316 µM,436 nM
same,IC50,second compound 1 µM,402 nM
same,IC50,second compound 3.16 µM,385 nM
same,IC50,second compound 10 µM,298 nM
same,"viability, T/C",[1],103%
same,"viability, T/C",[2],81.4%
same,"viability, T/C",[3],57.7%
same,"viability, T/C",[4],4.13%
same,"viability, T/C",[5],0.17%
same,"viability, T/C",[6],0.27%
same,"viability, T/C",[7],99%
same,"viability, T/C",[8],96.2%
same,"viability, T/C",[9],63.1%
same,"viability, T/C",[10],2.41%
same,"viability, T/C",[11],0.19%
same,"viability, T/C",[12],0.28%
same,"viability, T/C",[13],102%
same,"viability, T/C",[14],87.5%
same,"viability, T/C",[15],67.7%
same,"viability, T/C",[16],5.02%
same,"viability, T/C",[17],0.14%
same,"viability, T/C",[18],0.29%
same,"viability, T/C",[19],90.2%
same,"viability, T/C",[20],82.3%
same,"viability, T/C",[21],61.9%
same,"viability, T/C",[22],6.01%
same,"viability, T/C",[23],0.1%
same,"viability, T/C",[24],0.41%
same,"viability, T/C",[25],61.7%
same,"viability, T/C",[26],76.5%
same,"viability, T/C",[27],58.6%
same,"viability, T/C",[28],6.91%
same,"viability, T/C",[29],0.18%
same,"viability, T/C",[30],0.37%
same,"viability, T/C",[31],88.9%
same,"viability, T/C",[32],63.2%
same,"viability, T/C",[33],55.9%
same,"viability, T/C",[34],9.43%
same,"viability, T/C",[35],0.43%
same,"viability, T/C",[36],0.5%
CCCS(=O)(=O)Nc1ccc(F)c(C(=O)c2c[nH]c3ncc(-c4ccc(Cl)cc4)cc23)c1F + Cc1[nH]c2ccc(F)cc2c1-c1nc2c3cccnc3c3ncccc3c2[nH]1,IC50,second compound 0.0316 µM,2750 nM
same,IC50,second compound 0.1 µM,2640 nM
same,IC50,second compound 0.316 µM,3100 nM
same,IC50,second compound 1 µM,3130 nM
same,IC50,second compound 3.16 µM,2040 nM
same,IC50,second compound 10 µM,2610 nM
same,"viability, T/C",[1],108%
same,"viability, T/C",[2],96.2%
same,"viability, T/C",[3],103%
same,"viability, T/C",[4],78.5%
same,"viability, T/C",[5],46.5%
same,"viability, T/C",[6],21.1%
same,"viability, T/C",[7],104%
same,"viability, T/C",[8],94.5%
same,"viability, T/C",[9],95%
same,"viability, T/C",[10],83.8%
same,"viability, T/C",[11],43.5%
same,"viability, T/C",[12],22.7%
same,"viability, T/C",[13],105%
same,"viability, T/C",[14],100%
same,"viability, T/C",[15],89.8%
same,"viability, T/C",[16],80.2%
same,"viability, T/C",[17],47.6%
same,"viability, T/C",[18],23%
same,"viability, T/C",[19],108%
same,"viability, T/C",[20],97.3%
same,"viability, T/C",[21],90.4%
same,"viability, T/C",[22],75.1%
same,"viability, T/C",[23],48.6%
same,"viability, T/C",[24],20.8%
same,"viability, T/C",[25],78.7%
same,"viability, T/C",[26],86%
same,"viability, T/C",[27],79.5%
same,"viability, T/C",[28],65.2%
same,"viability, T/C",[29],40.5%
same,"viability, T/C",[30],16.2%
same,"viability, T/C",[31],81.2%
same,"viability, T/C",[32],67.6%
same,"viability, T/C",[33],71.5%
same,"viability, T/C",[34],67.6%
same,"viability, T/C",[35],46.1%
same,"viability, T/C",[36],13.5%
